Measured values from patent US20230405004A1 (NEURORIVE INC, priority 2020, published 2023).

Key:
[1] = test system: 5xFAD mouse; experiment: Y-maze test; assay type: in vivo; details: donepezil 2 mg/kg oral
Experimental: In order to test an improvement effect on short-term working memory ability according to the administration of the complex composition of the present invention, a Y-maze test was performed using the mouse model of the Alzheimer's disease described above. For the experiment, a Y-shaped maze (36 cm in width, 16 cm in length, 15 cm in height) having three arms was used, and the mice started randomly in three arms. The mice were placed in the maze, then the number of times when the center of the mouse body entered each arm and the cases in which the mice entered each arm sequentially were checked. The alternation behavior is defined as consecutive entries in three different arms without overlapping, and spontaneous alternation behavior was calculated by the following equation:
Alternation (%)=(the number of entities into all the 3 arms on consecutive/the number of entirety arms entries−2)×100
Then, each group was subjected to oral administration to perform the experiment.

[2] = test system: 5xFAD mouse; experiment: Morris water maze (MWM) task; assay type: in vivo; details: for Escape latency (Increase or decrease compared to mutated mouse vehicle group): DAY 4; for time spent in the target quadrant (Increase or decrease compared to mutated mouse vehicle group): probe test DAY 5
Experimental: The 5xFAD mouse used in this experiment was a genetically modified mouse model in which Alzheimer's disease-inducing genes were inserted. Specifically, mice over-expressed both the amyloid precursor protein with the Swedish mutation (K670N, M671L), the Florida mutation […], and the London mutation (V717I) and PS1 with the M146L and L286V mutations. The 5xFAD mouse model is the most widely used in Alzheimer's disease studies.
A Morris water maze (MWM) task was conducted to examine an effect on improving cognitive function depending on the administration of the complex composition of the present invention. The experimental equipment was comprised of a circular water tank (150 cm in diameter and 45 cm in height) filled with water having a temperature of about 22±2° C., an escape platform (10 cm in diameter and 30 cm in height), and 4 markers attached to the wall that allows the mouse to remember the location of the escape platform. The above markers remained unchanged throughout the test period. The escape platform was placed 1 cm above the water surface or 0.5 to 1.5 cm below the water surface according to the purpose of the experiment. When placed under the water surface, the water was made opaque with white water-based paint so that the escape platform was not visible to the eye. The Morris water maze was divided into four quadrants, i.e., northeast (NE), northwest (NW), southeast (SE) and southwest (SW), wherein the escape platform was placed in the center of the southwest quadrant, and the mouse started randomly from one of the others.
The escape platform was made visible on Learning DAY 0. Each mouse was trained to recognize that it was possible to escape when they swam toward the escape platform and landed thereon. On DAY 1-4, the escape platform was hidden by being placed under the water, and then the mice learned the position of the escape platform. The time limit was set to 60 seconds, and if the mouse found the escape platform within 60 seconds, it was allowed to stay on the escape platform for 5 seconds. The mice were then immediately transferred to the breeding cage. On DAY 5, the probe test was performed without the escape platform. The probe test was performed by placing the mouse in the farthest part of the quadrant where the escape platform was placed during the training day, and 60 seconds was set as the time limit. The indexes of cognitive function include the escape latency which is the time required for the mouse to find the escape platform and the time spent in the quadrant where the escape platform was placed. It was judged that the shorter the time it takes to escape (FIG. 2A) and the longer the mouse stays in the quadrant where the escape platform was placed (FIG. 2B), the better the memory and learning ability of the mouse.
Then, each group was subjected to oral administration for 4 weeks to perform the experiment.

COc1cc2c(cc1OC)C(=O)C(CC1CCN(Cc3ccccc3)CC1)C2 (stereo not drawn) [Donepezil, donepezil]
Voluntary alternation behavior (Increase or decrease compared to mutated mouse vehicle group) [1]: 25.15%
Escape latency (Increase or decrease compared to mutated mouse vehicle group) ([2]; donepezil 1 mg/kg oral 4 weeks): −20.15%
time spent in the target quadrant (Increase or decrease compared to mutated mouse vehicle group) ([2]; donepezil 1 mg/kg oral 4 weeks): 51.63%
Escape latency (Increase or decrease compared to mutated mouse vehicle group) ([2]; donepezil 2 mg/kg oral 4 weeks): −33.79%
time spent in the target quadrant (Increase or decrease compared to mutated mouse vehicle group) ([2]; donepezil 2 mg/kg oral 4 weeks): 148.46%
escape latency reduced by, based on the mutant mouse vehicle group ([2]; mutated mouse, donepezil 2 mg/kg alone, stated as reduction): 33.79%
